This assay concerns the target bovine serum albumin (Bos taurus, UniProt P02769). Put plainly: HF field effect 1 to 170 MHz on separation of phenylacetic acid from BSA solution in dialysis module (HPLC). It counts as in vitro ADME. The note with it: BSA 60 mg/ml, 1 mmol/l toxin. How it is done: Examination of the HF field effect in the frequency range 1 to 170 MHz.
The HF field was varied in subbands of 10 MHz in the frequency range 1-170 MHz and was compared with a control experiment without an HF field.
The quantitative determination of the phenylacetic acid was performed using HPLC.
The results of the experiments are collected in FIG. 4. […] The effect was particularly pronounced at 54.6% in the subband from 110 to 120 MHz.

bovine serum albumin, sequence (P02769 25-607): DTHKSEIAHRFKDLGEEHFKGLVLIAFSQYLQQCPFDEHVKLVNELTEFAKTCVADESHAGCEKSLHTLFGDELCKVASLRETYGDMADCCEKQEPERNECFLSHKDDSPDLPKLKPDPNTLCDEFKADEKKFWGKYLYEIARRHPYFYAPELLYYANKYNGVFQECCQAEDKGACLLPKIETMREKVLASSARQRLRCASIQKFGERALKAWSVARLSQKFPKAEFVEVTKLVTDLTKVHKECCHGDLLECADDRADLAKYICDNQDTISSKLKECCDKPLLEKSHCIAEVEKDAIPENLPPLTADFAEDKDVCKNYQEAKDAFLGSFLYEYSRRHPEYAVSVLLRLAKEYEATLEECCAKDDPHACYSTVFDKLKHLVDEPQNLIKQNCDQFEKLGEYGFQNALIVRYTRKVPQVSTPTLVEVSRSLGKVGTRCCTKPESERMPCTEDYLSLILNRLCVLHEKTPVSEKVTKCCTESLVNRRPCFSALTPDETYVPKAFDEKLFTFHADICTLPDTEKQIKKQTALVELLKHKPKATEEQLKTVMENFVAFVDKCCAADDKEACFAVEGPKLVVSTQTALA

On to `O=C(O)Cc1ccccc1` [phenylacetic acid], for which the “increase of separation rate under the influence of the HF field” value was “at least 45.3%” (HF field 1-170 MHz in subbands of 10 MHz vs control without HF field) and 54.6% (subband from 110 to 120 MHz vs control without HF field).

Source of the values: patent US10172994B2, “Hemodiafiltration method” (Fresenius Medical Care Deutschland GmbH, priority 2012, dated 2019).
